What was measured:
P. mirabilis = test: In vitro MIC, 2010 surveillance isolates; format: cell-based; details: N=384
[1] = In vitro plasma protein binding (ultrafiltration), mouse plasma; format: in vitro ADME, mouse (CD-1); details: CD-1, 10-10,000 ng/mL, mean±SD, read-out: mean unbound protein fraction (fu) in plasma
Method: (§1) For human binding studies, plasma was obtained from the blood of three healthy male volunteers. Plasma was defrosted from storage at -20° C. before use, and pools of human plasma were used for all studies. Plasma from mouse, rat, and monkey was supplied by Harlan Laboratories Ltd. (Netherlands), Milan […], Switzerland) and Centre de Primatologie ULP (France), respectively. Protein binding was measured using an ultrafiltration method. To asses the suitability of ultrafiltration, the recovery and free permeation of [^14C]-labelled Compound 1 in PBS buffer were investigated. […] Three 1 mL aliquots per concentration were introduced into […]® devices and spun for 1 min at 2000 g (filtrate ≤500 μL). Samples of the spiked solutions, the filtrate and retentate were quantified by LSC; volumes were determined by weighing. The free permeation of the test compound in PBS was evaluated as follows: Ratio=[Cuf/Cr] with Cuf being the concentration in the ultrafiltrate (ng/mL) and Cr the concentration in the retentate (ng/mL). […] Specifically, concentrations of Compound 1 was determined by an UPLC-MS/MS method. […] Standards and quality control samples were prepared on the day of analysis by adding a 20 μL aliquot of an appropriate standard or QC spiking solution in methanol. A 25 μL aliquot of the internal standard (at 200 ng/mL in methanol) was added to each well except blanks. […] Samples were processed using protein precipitation. A 0.5 mL aliquot of an acetonitrile/ethanol/acetic acid mixture (90:10:0.1, v:v:v) was added to each sample; samples were mixed using a vortex mixer for 10 minutes, and centrifuged 3800 rpm (approximately 2500×g) for 10 min at 10° C. […] The ions monitored for Compound 1 was the parent [M+H]^+ ion at m/z 557.3.0; the product ions at m/z 453.4. […] The quantification was performed using Analyst software and Watson LIMS version 7.2.0.01. Concentrations in QC and study samples were calculated from the resulting peak area ratios and interpolation from the regression equations of the respective calibration curves. The lower limit of quantitation was 5.0 ng/mL for Compound 1.

plasma proteins = test: as above; format: in vitro ADME, mouse (CD-1); details: 10-10,000 ng/mL
Method: as §1

E. coli FQS = test: In vitro MIC, 2010 surveillance isolates; format: cell-based, Escherichia coli; details: N=2906
[2] = complicated skin and skin structure infection; cited from earlier work
E. coli = test: In vitro activity in urine relative to standard media; format: cell-based
P. aeruginosa = test: In vitro MIC (Data from CMI 07); format: cell-based; details: N=22
[3] = system: E. coli (ATCC 25922) biofilm; test: MBEC assay, activity against established 24 hour biofilm; format: cell-based, Escherichia coli; details: 24 hours challenge
Method: The MBEC™ assay (formerly the Calgary biofilm device; Innovotech Inc., Canada) is a well-established high throughput assay for assessment of anti-biofilm activity of test agents in a 96-well format. Within this assay, the biofilm is formed on the plastic pegs of the plate lid. After inoculated media is introduced to the wells of the 96-well plate, the plate is placed in a shaking incubator to generate the necessary shear force for biofilm growth on the pegs. Following a suitable incubation time, the individual biofilms can be treated with varying concentrations of test agents (challenge plate). After the desired treatment time, the remaining biofilm-associated bacteria are retrieved from the pegs through sonication (recovery plate). Serial dilution and/or plating of the recovered bacterial suspension allow for the quantification of test agents' efficacy against pre-formed biofilms. Additionally, readout of the challenge plate from the biofilm treatment can be used to determine MIC values of test agents. The absence of growth in the recovery plate indicates complete biofilm eradication and the lowest concentration of a test agent that achieves this is designated as the minimum biofilm eradication concentration (MBEC). The MBEC™ assay is also amenable to assess potential synergistic effects of combination treatments, as well as efficacy of test agents in inhibiting or inducing biofilm formation. The MBEC™ plates were inoculated with 10^7 CFU/mL of stationary phase E. coli (ATCC 25922) and incubated for 24 hours to allow formation of a robust biofilm. The individual biofilms formed on the pegs were challenged with varying concentrations of antibiotics for 24 hours, followed by recovery of the surviving bacteria. Bacterial enumeration was performed using a Most Probable Number (MPN) assay (Sutton, Journal of Validation Technology 16 (3): 35-38, 2010, incorporated herein by reference) in a 96-well format.

human plasma protein = details: cited from earlier work

CN(C)c1cc(CNCC(C)(C)C)c(O)c2c1C[C@H]1C[C@H]3[C@H](N(C)C)C(O)=C(C(N)=O)C(=O)[C@@]3(O)C(O)=C1C2=O [Compound 1, 9-[(2,2-dimethyl-propylamino)-methyl]-minocycline]
Cumulative % Inhibition at MIC (P. mirabilis; MIC 1 μg/ml): 0.3%
Cumulative % Inhibition at MIC (P. mirabilis; MIC 2 μg/ml): 1.3%
Cumulative % Inhibition at MIC (P. mirabilis; MIC 4 μg/ml): 5.7%
Cumulative % Inhibition at MIC (P. mirabilis; MIC 8 μg/ml): 22.9%
Cumulative % Inhibition at MIC (P. mirabilis; MIC 16 μg/ml): 56.8%
Cumulative % Inhibition at MIC (P. mirabilis; MIC ≤0.5 μg/ml): 0%
Cumulative % Inhibition at MIC (P. mirabilis; MIC ≥32 μg/ml): 100%
fraction unbound [1]: 0.847 ± 0.0531
Mean (SD) Bound Fraction (plasma proteins): 15.3 (5.31) %
mean unbound protein fraction (fu) in plasma (plasma proteins; mean±SD): 84.7±5.3%
Cumulative % Inhibition at MIC (E. coli FQS; MIC 1 μg/ml): 87.0%
Cumulative % Inhibition at MIC (E. coli FQS; MIC 2 μg/ml): 96.6%
Cumulative % Inhibition at MIC (E. coli FQS; MIC 4 μg/ml): 99.6%
Cumulative % Inhibition at MIC (E. coli FQS; MIC 8 μg/ml): 99.9%
Cumulative % Inhibition at MIC (E. coli FQS; MIC 16 μg/ml): 99.9%
Cumulative % Inhibition at MIC (E. coli FQS; MIC ≤0.5 μg/ml, listed as head image P00007): 58.5%
Cumulative % Inhibition at MIC (E. coli FQS; MIC ≥32 μg/ml): 100%
clinical efficacy and tolerability [2]: comparable to linezolid
activity in urine relative to standard media (E. coli): stable
Cumulative % Inhibition at MIC (P. aeruginosa; MIC 1 μg/ml): 0%
Cumulative % Inhibition at MIC (P. aeruginosa; MIC 2 μg/ml): 0%
Cumulative % Inhibition at MIC (P. aeruginosa; MIC 4 μg/ml): 0%
Cumulative % Inhibition at MIC (P. aeruginosa; MIC 8 μg/ml): 0%
Cumulative % Inhibition at MIC (P. aeruginosa; MIC 16 μg/ml): 9.1%
Cumulative % Inhibition at MIC (P. aeruginosa; MIC ≤0.5 μg/ml, Data from CMI 07): 0%
Cumulative % Inhibition at MIC (P. aeruginosa; MIC ≥32 μg/ml): 100%
reduction of total biofilm-associated bacteria ([3]; at around MIC): 1-2 log units
reduction in bioburden ([3]; at higher concentrations): 4-5 log units

CN(C)c1cc(NC(=O)CNC(C)(C)C)c(O)c2c1C[C@H]1C[C@H]3[C@H](N(C)C)C(O)=C(C(N)=O)C(=O)[C@@]3(O)C(O)=C1C2=O [Tigecycline]
type of plasma protein binding (human plasma protein; binding increases with increasing drug concentrations): atypical, non-linear protein binding
human plasma protein binding, Mean (human plasma protein; literature): 71-87%

From patent US10238670B2, “9-aminomethyl minocycline compounds and methods of use thereof in urinary tract infection (UTI) treatment” (Paratek Pharmaceuticals, Inc., priority 2016, dated 2019)
